{"source": "patent US9315816B2", "about": "“Method for rapidly developing gene switches and gene circuits” (National University Corporation Chiba University, priority 2010, dated 2016)", "key": {"[1]": {"tested_on": "TK-deficient E. coli strain in which hsvTK was expressed (hsvTK+)", "assay": "ON selection: 5FdU concentration vs viable cell count, hsvTK+", "type": "cell-based, Escherichia coli", "protocol": "With the TK-deficient strain of E. coli JW1226, a human herpes virus derived thymidine kinase (hsvTK) was expressed by transfecting pTrc-hsvtk (FIG. 3), and a relationship between the concentration of 5FdU and the survival rate of cells (viable cell count) was investigated.\nFirst, JW1226 cells transfected with pTrc-hsvtk were diluted with 1 mL of positive selection medium so as to achieve an OD600 of 0.002 (approximately 10^6 cells/mL), and cultured at 37° C. for 12 hours while being rotated at 200 rpm. The positive selection medium used was medium containing tryptone at 2% w/v, NaCl at 0.5% w/v, dT at 10 μg/mL, adenosine at 1 μg/mL, and 5FdU at 0 to 25 μg/mL. After the culture, a portion of the resultant culture was collected and inoculated in an LB plate containing ampicillin, and the number of colonies grown was counted as a viable cell count."}, "[2]": {"tested_on": "TK-deficient E. coli strain in which hsvTK was not expressed (hsvTK−)", "assay": "ON selection: 5FdU concentration vs viable cell count, hsvTK−", "type": "cell-based, Escherichia coli", "conditions": "5FdU 0 to 25 μg/mL, 12 hours"}, "[3]": {"tested_on": "E. coli MV2157 transfected with selector plasmid Ver. 2 and Circuit-C or Circuit-D", "assay": "ON selection of genetic circuit with selector plasmid Ver. 2 under MMS", "type": "cell-based, Escherichia coli", "protocol": "First, E. coli MV2157 transfected with selector plasmid Ver. 2 and Circuit-C (referred to as “ON strain” in Example 3), and E. coli MV2157 transfected with selector plasmid Ver. 2 and […] (referred to as “OFF strain” in Example 3) were prepared. […] The cell density at the time of the MMS treatment is approximately 10^8 cells/mL. […] A value obtained by dividing the viable cell count of the sample to which MMS had been added by the viable cell count of the sample to which MMS had not been added was defined as a survival rate.\nNext, time-dependent changes in the survival rates of the ON strain and the OFF strain when MMS was added at 0.2% were investigated. In this case, an ON strain transfected with pTrc-ape1 was prepared and similarly studied for comparison. Culture and treatment with MMS of each strain of E. coli were conducted by similar methods to the methods in the foregoing."}, "[4]": {"tested_on": "alkylating agent-sensitive E. coli strain MV2157", "assay": "ON-selector function of AAG gene: survival rate under MMS", "type": "cell-based, Escherichia coli", "protocol": "The ON-selector function of the AAG gene was studied. First, alkylating agent-sensitive E. coli strains MV2157 were separately transfected with plasmids containing AAG and variants thereof, specifically, pTrc-aag (WT), pTrc-aag (E125A), and pTrc-aag-ape1 prepared in Example 1, and were compared for their survival rates in the presence/absence of MMS. The E. coli strain transfected with pTrc-aag (E125A) was used as a negative control.\nNext, 1 μL of culture was inoculated in LB liquid medium, and cultured at 37° C. for 3 hours. MMS was added at a final concentration of 0 to 40 mM, and culture was conducted at 37° C. for 15 to 60 minutes. […] A value obtained by dividing the viable cell count of the sample to which MMS had been added by the viable cell count of the sample to which MMS had not been added was defined as a survival rate."}, "[5]": {"tested_on": "E. coli MV2157 switch strains with selector plasmid Ver. 2", "assay": "Enrichment efficiency by dual selection, Circuit-B:C:D = 1:100:100", "type": "cell-based, Escherichia coli", "conditions": "0.4% MMS, 30 minutes, approximately 10^6 cells/mL", "protocol": "Next, enrichment efficiency by dual selection was evaluated. Selector plasmid Ver. 2 (FIG. 13-B) was used as a selector plasmid, and the following three kinds of model genetic circuits were used: Circuit-B; Circuit-C; and Circuit-D (see FIGS. 2-B, 2-C, and 2-D). The selector plasmid and one kind of model genetic circuit were transfected into E. coli MV2157. Each switch strain was inoculated in 2 mL of LB medium containing AHL, and cultured at 37° C. for 12 hours. Next, the switch strains having Circuit-B, Circuit-C, or Circuit-D were mixed at an abundance ratio of 1:100:100 in terms of OD. The mixed cell population was subjected to OFF selection by the same method as above, and then cultured at 37° C. for 2 hours. The cells were harvested by centrifugation, the medium was exchanged for M9 minimal medium, MMS was added at a concentration of 0.2%, 0.3%, or 0.4%, and the whole was left to stand still at 37° C. for 30 minutes (ON selection). After that, the medium was exchanged for LB medium, culture was conducted for 12 hours, and plasmids were extracted from the culture solution. The plasmids were transformed together with pλ-gfp into XL10-GOLD™ ultracompetent cells (Agilent Technologies). After that, the transformed cells were inoculated in solid media supplemented and not supplemented with AHL, and the numbers of cells expressing GFP were compared. […]"}, "E. coli cell population": {"tested_on": "E. coli cell population", "conditions": "37 μM dP; cited from earlier work"}, "[6]": {"tested_on": "TK-deficient cells transfected with pTrc-hsvtk constantly expressing hsvTK", "assay": "Rapidity of OFF selection (dP shock)", "type": "cell-based, Escherichia coli", "conditions": "dP 1 μM; 5, 30 or 60 minutes", "protocol": "First, TK-deficient cells transfected with pTrc-hsvtk (FIG. 3) so as to constantly express hsvTK were cultured under shaking at 37° C. and 200 rpm until an OD of 0.05 (approximately 3×10^7 cells/mL) was achieved. The resultant was dispensed at 1 mL each, dP was added (final concentration: 1 μM), and culture was continued at 37° C. After a lapse of 5, 30, or 60 minutes, 20 μL of the culture (approximately 10^6 cells) were collected and inoculated in an LB plate containing ampicillin, and the number of colonies grown was counted as a viable cell count."}, "[7]": {"tested_on": "TK-deficient E. coli strain transfected with a control plasmid pTrc99A (hsvTK−)", "assay": "OFF selection: dP concentration vs viable cell count, hsvTK− control", "type": "cell-based, Escherichia coli", "conditions": "dP 0 to 100 nM, 12 hours"}, "[8]": {"tested_on": "TK-deficient E. coli strain JW1226 in which hsvTK was expressed (hsvTK+)", "assay": "OFF selection: dP concentration vs viable cell count, hsvTK+", "type": "cell-based, Escherichia coli", "conditions": "dP 0 to 100 nM, 12 hours", "protocol": "With the TK-deficient E. coli strain JW1226, human herpes virus derived thymidine kinase (hsvTK) was expressed by transfecting pTrc-hsvtk (FIG. 3), and a relationship between the concentration of dP and the survival rate of cells (viable cell count) was investigated.\nFirst, JW1226 cells transfected with pTrc-hsvtk were cultured in 2 mL of LB medium containing 100 μg/mL of ampicillin at 37° C. overnight. Next, the culture was diluted with 1 mL of fresh LB medium containing dP (at a final concentration of 0 to 100 nM) 1,000-fold (10^6 cells/mL), and stirred and shaken at 37° C. for 12 hours. After the culture, the cells were seeded on an LB-agar (1.5% w/v) plate containing ampicillin at 100 μg/mL. After incubation at 37° C. for 12 hours, the number of colonies grown was counted as a viable cell count."}}, "data": [{"molecule": "O=c1[nH]c(=O)n([C@H]2C[C@H](O)[C@@H](CO)O2)cc1F", "note": "[5FdU, 5-fluoro-2′-deoxyuridine]", "values": [{"measurement": "viable cell count", "setting": "[1]; 5FdU 0 to 25 μg/mL, 12 hours, hsvTK+", "value": "decreased at a slow rate"}, {"measurement": "survival rate of hsvTK+ as compared to hsvTK−", "setting": "[1]; 5FdU 25 μg/mL", "value": "4.8×10^7 fold"}, {"measurement": "viable cell count", "setting": "[2]", "value": "decreased with increasing concentrations of 5FdU"}]}, {"molecule": "CS(=O)(=O)O", "note": "[MMS, methanesulfonic acid]", "values": [{"measurement": "survival rate of OFF strain (AAG not expressed)", "setting": "[3]; MMS 0.2-0.4%, 15 to 60 minutes", "value": "significantly decreased"}, {"measurement": "survival rate of ON strain (AAG expressed)", "setting": "[3]; MMS 0.2-0.4%, 15 to 60 minutes", "value": "only slightly reduced"}, {"measurement": "difference in survival rate between the OFF strain and the ON strain", "setting": "[3]; MMS 0.4%, 30 minutes", "value": "≥ 10^4 fold"}, {"measurement": "survival rates of cells expressing AAG", "setting": "[4]; MMS 20 mM, 60 minutes", "value": "significantly decreased"}, {"measurement": "enrichment of cells expressing AAG", "setting": "[4]; MMS treatment 15 to 60 minutes", "value": "~1,000 fold"}, {"measurement": "survival of all the strains", "setting": "[4]; MMS ~40 mM", "value": "mostly died off"}, {"measurement": "cell survival in ON selection", "setting": "[5]", "value": "all the cells were killed"}]}, {"molecule": "O=C1NC2=NOCCC2=CN1[C@H]1C[C@H](O)[C@@H](CO)O1", "note": "[dP, 6-(β-D-2-Deoxyribo-furanosyl)-3,4-dihydro-8H-pyrimido[4,5-c][1,2]oxazin-7-one]", "values": [{"measurement": "fraction of E. coli cell population killed", "setting": "E. coli cell population", "value": 80, "unit": "%"}, {"measurement": "viable cell count after dP shock", "setting": "[6]", "value": "almost zero"}, {"measurement": "survival rate", "setting": "[7]", "value": "no reduction in survival rate"}, {"measurement": "viable cell count", "setting": "[8]", "value": "significantly decreased in a dP concentration-dependent manner"}]}, {"molecule": "pTrc-aag (WT): ON-selector plasmid containing a wild-type AAG gene", "values": [{"measurement": "MMS resistance", "setting": "[4]; 3-methyladenine repair enzyme-deficient strain", "value": "acquisition of MMS resistance has been confirmed"}]}]}
